Values after ≈ are worked out from the molar mass of the structure shown.
Assays:
[1] = system: Asexual parasites of P. falciparum strain 3D7; assay: In vitro drug activity on asexual parasites (SYBR Green assay); type: cell-based; conditions: Plasmodium falciparum; Table 1; P. falciparum 3D7 asexual stage, 72 h; read-out: Asexual EC50
Protocol: Cell culture. Asexual parasites of P. falciparum strain 3D7 were cultured as described previously [Trager W, et al., Journal of Parasitology 2005, 91: 484-486]. Stage III-V gametocytes were selected and enriched with 3-day treatment with 50 mM N-acetylglucosamine (NAG) and the following Percoll density gradient centrifugation after gametocyte production [Tanaka T Q, et al., Molecular and Biochemical Parasitology, 2011, 177: 160-163]. Gametocytes of HB3 and Dd2 strains were produced and then set up for assay in a similar process. HepG2 cells (ATCC, cat. no. 77400) were cultured in 175-cm^2 tissue culture flasks with 30 ml growth medium at 37° C. in a 5% CO2 humidified atmosphere. Growth medium was made with Dulbecco's Modified Eagle Medium with 10% fetal bovine serum (FBS). Growth medium was replaced every other day and cells were passed at 75% confluence.
Asexual parasites of P. falciparum strain 3D7 were cultured as described previously (Trager, W. et al., J. Parasitol. 2005, 91(3): 484-486). Drug activity on asexual stage parasites was tested using a SYBR Green assay as described previously (Eastman, R. T. et al., Antimicrob. Agents Chemother. 2013, 57(1): 425-435; Smilkstein, M. et al., Antimicrob. Agents Chemother. 2004, 48(5): 1803-1806). Briefly, parasites were diluted to 0.5% parasitemia in complete culture medium with 2% hematocrit and drugs diluted in DMSO (<0.5%) and were loaded into a 96-well plate (200 μl/well). No drug and RBC alone wells were included as positive and background controls, respectively, and each testing condition was examined in duplicated. After 72 h incubation under the standard culture condition and a freeze-thaw lysis step at −80° C. and room temperature, 100 μl/well of lysis buffer containing SYBR Green I was added to the parasite culture and incubated for 30 min at room temperature. The fluorescence of each well was measured at 520 nm following excitation at 490 nm using a FLUOstar Optima™ microplate reader (BMG Labtech).
Compounds were screened against gametocytes and asexual parasites as described in Examples 1 and 2.

[2] = Microsomal stability (rat); type: in vitro ADME; conditions: rat microsomes, Table 1, read-out: Microsomal Stability (rat) T1/2
Solubility pH 7.4 = type: physicochemical; conditions: aqueous buffer, Table 1

Compound	EC50 [1] [nM]	half-life [2] [min]	solubility (Solubility pH 7.4) [µg/mL]
Cc1ccc(C#N)cc1-n1c(=N)n(C)c2cnc3ccc(-c4ccc5c(c4)CC(=O)N5)cc3c21 [Compound 3, 3-(2-imino-3-methyl-8-(2-oxoindolin-5-yl)-2,3-dihydro-1H-imidazo[4,5-c]quinolin-1-yl)-4-methylbenzonitrile]	20.3	> 30	3.6 (≈ 8.1 µM)
Cc1cc(N2CCNCC2)c(C#N)cc1-n1c(=N)n(C)c2cnc3ccc(-c4ccc(Cl)cc4)cc3c21 [Compound 14, 5-(8-(4-chlorophenyl)-2-imino-3-methyl-2,3-dihydro-1H-imidazo[4,5-c]quinolin-1-yl)-4-methyl-2-(piperazin-1-yl)benzonitrile]	175	> 30	< 1
Cc1cc(N2CCN(C(=O)OC(C)(C)C)CC2)c(C#N)cc1-n1c(=N)n(C)c2cnc3ccc(-c4ccc(Cl)cc4)cc3c21 [Compound 15, tert-butyl 4-(4-(8-(4-chlorophenyl)-2-imino-3-methyl-2,3-dihydro-1H-imidazo[4,5-c]quinolin-1-yl)-2-cyano-5-methylphenyl)piperazine-1-carboxylate]	591	> 30	< 1
Cc1ccc(S(=O)(=O)/N=c2\n(C)c3cnc4ccc(-c5ccc(Cl)cc5)cc4c3n2-c2cc(C#N)ccc2C)cc1 [Compound 16, (E)-N-(8-(4-chlorophenyl)-1-(5-cyano-2-methylphenyl)-3-methyl-1,3-dihydro-2H-imidazo[4,5-c]quinolin-2-ylidene)-4-methylbenzenesulfonamide]	240	10.4	< 1
CCCC/N=c1\n(C)c2cnc3ccc(-c4ccc(Cl)cc4)cc3c2n1-c1cc(C#N)ccc1C [Compound 17, (E)-3-(2-(butylimino)-8-(4-chlorophenyl)-3-methyl-2,3-dihydro-1H-imidazo[4,5-c]quinolin-1-yl)-4-methylbenzonitrile]	542	> 30	1.1 (≈ 2.29 µM)
Cc1ccc(C#N)cc1-n1/c(=N/S(C)(=O)=O)n(C)c2cnc3ccc(-c4ccc(Cl)cc4)cc3c21 [Compound 20, (E)-N-(8-(4-chlorophenyl)-1-(5-cyano-2-methylphenyl)-3-methyl-1,3-dihydro-2H-imidazo[4,5-c]quinolin-2-ylidene)methanesulfonamide]	6.28	> 30	< 1
Cc1ccc(C#N)cc1-n1c(=N)n(C)c2cnc3ccc(-c4ccc(Cl)c(N)c4)cc3c21 [Compound 40, 3-(8-(3-amino-4-chlorophenyl)-2-imino-3-methyl-2,3-dihydro-1H-imidazo[4,5-c]quinolin-1-yl)-4-methylbenzonitrile]	30.8	> 30	> 43
Cc1nc(N2CCNCC2)c(C#N)cc1-n1c(=N)n(C)c2cnc3ccc(-c4ccc(Cl)cc4)cc3c21 [Compound 47, 5-(8-(4-chlorophenyl)-2-imino-3-methyl-2,3-dihydro-1H-imidazo[4,5-c]quinolin-1-yl)-6-methyl-2-(piperazin-1-yl)nicotinonitrile]	69.7	> 30	6 (≈ 11.8 µM)
Cn1c(=N)n(C2CCN(C3CCOCC3)CC2)c2c3cc(-c4ccc(Cl)cc4)ccc3ncc21 [Compound 57, 8-(4-chlorophenyl)-3-methyl-1-(1-(tetrahydro-2H-pyran-4-yl)piperidin-4-yl)-1,3-dihydro-2H-imidazo[4,5-c]quinolin-2-imine]	2520	> 30	> 47
Cn1c(=N)n([C@H]2CC[C@@H](N3CCOCC3)CC2)c2c3cc(-c4ccc(Cl)cc4)ccc3ncc21 [Compound 59, 8-(4-chlorophenyl)-3-methyl-1-((1s,4s)-4-morpholinocyclohexyl)-1,3-dihydro-2H-imidazo[4,5-c]quinolin-2-imine]	13200	> 30	> 47
Cc1ccccc1-c1ccc2ncc3c(c2c1)n(-c1cc(C#N)ccc1C)c(=N)n3C [Compound 61, 3-(2-imino-3-methyl-8-(o-tolyl)-2,3-dihydro-1H-imidazo[4,5-c]quinolin-1-yl)-4-methylbenzonitrile]	1720	10	19.2 (≈ 47.6 µM)

Further lines, results first:

EC50 [1] [nM]	half-life [2] [min]	solubility (Solubility pH 7.4) [µg/mL]	Compound
360	> 30	3.4 (≈ 7.76 µM)	CCc1ccc(C#N)cc1-n1c(=N)n(C)c2cnc3ccc(-c4ccc(Cl)cc4)cc3c21 [Compound 7, 3-(8-(4-chlorophenyl)-2-imino-3-methyl-2,3-dihydro-1H-imidazo[4,5-c]quinolin-1-yl)-4-ethylbenzonitrile]
24.4	> 30	< 1	Cn1c(=N)n(-c2cc(C#N)ccc2F)c2c3cc(-c4ccc(Cl)cc4)ccc3ncc21 [Compound 10, 3-(8-(4-chlorophenyl)-2-imino-3-methyl-2,3-dihydro-1H-imidazo[4,5-c]quinolin-1-yl)-4-fluorobenzonitrile]
477	> 30	> 38	Cn1cc(-n2c(=N)n(C)c3cnc4ccc(-c5ccc(Cl)cc5)cc4c32)cn1 [Compound 13, 8-(4-chlorophenyl)-3-methyl-1-(1-methyl-1H-pyrazol-4-yl)-1,3-dihydro-2H-imidazo[4,5-c]quinolin-2-imine]
778	> 30	26 (≈ 57.3 µM)	CCOc1ccc(C#N)cc1-n1c(=N)n(C)c2cnc3ccc(-c4ccc(Cl)cc4)cc3c21 [Compound 19, 3-(8-(4-chlorophenyl)-2-imino-3-methyl-2,3-dihydro-1H-imidazo[4,5-c]quinolin-1-yl)-4-ethoxybenzonitrile]
62.3	> 30	3.5 (≈ 8.24 µM)	Cc1ncc(C#N)cc1-n1c(=N)n(C)c2cnc3ccc(-c4ccc(Cl)cc4)cc3c21 [Compound 22, 5-(8-(4-chlorophenyl)-2-imino-3-methyl-2,3-dihydro-1H-imidazo[4,5-c]quinolin-1-yl)-6-methylnicotinonitrile]
130	> 30	7.8 (≈ 19 µM)	Cn1c(=N)n(-c2cncc(C#N)c2)c2c3cc(-c4ccc(Cl)cc4)ccc3ncc21 [Compound 45, 5-(8-(4-chlorophenyl)-2-imino-3-methyl-2,3-dihydro-1H-imidazo[4,5-c]quinolin-1-yl)nicotinonitrile]
1760	> 30	19.9 (≈ 46.4 µM)	Cn1c(=N)n(-c2cncc(C(N)=O)c2)c2c3cc(-c4ccc(Cl)cc4)ccc3ncc21 [Compound 46, 5-(8-(4-chlorophenyl)-2-imino-3-methyl-2,3-dihydro-1H-imidazo[4,5-c]quinolin-1-yl)nicotinamide]
309	> 30	< 1	Cn1c(=N)n(-c2cnc(N3CCOCC3)c(C#N)c2)c2c3cc(-c4ccc(Cl)cc4)ccc3ncc21 [Compound 50, 5-(8-(4-chlorophenyl)-2-imino-3-methyl-2,3-dihydro-1H-imidazo[4,5-c]quinolin-1-yl)-2-morpholinonicotinonitrile]
1420	> 30	< 1	Cn1c(=N)n(-c2cc(C#N)ccc2OC(F)(F)F)c2c3cc(-c4ccc(Cl)cc4)ccc3ncc21 [Compound 54, 3-(8-(4-chlorophenyl)-2-imino-3-methyl-2,3-dihydro-1H-imidazo[4,5-c]quinolin-1-yl)-4-(trifluoromethoxy)benzonitrile]

Reference: patent publication US20210188843A1, “QUINOLINE COMPOUNDS AND THEIR PREPARATION AND USE AS ANTIMALARIAL AGENTS” (The United States of America,as represented by the …, priority 2018, published 2021)
